Measurements: patent US9889115B2, “Fitness assay and associated methods” (priority 1998, dated 2018)

Key:
wild-type HIV = experiment: wild-type antiretroviral activity (Table 4); conditions: Human immunodeficiency virus 1, read-out: ID50
wild-type HIV protease = wild-type HIV protease (Human immunodeficiency virus type 1 group M subtype B, UniProt P04585); experiment: biochemical
HIV-1LAI [1] = experiment: MT-2 cells, MTT assay; format: cell-based; conditions: HIV-1LAI; MT-2/MTT, day 7
Protocol: All drug sensitivities were performed in triplicate. […] The IC50's were determined using the MTT assay on day 7 of culture. All sensitivities were determined in […].

HIV-1BAL = experiment: PHA-PBMC assay, p24 Gag protein production; format: cell-based; conditions: HIV-1Ba-L; PBMC/p24, day 7 (Table 8)
HIV-1LAI [2] = experiment: PHA-PBMC assay, p24 Gag protein production; format: cell-based; conditions: HIV-1LAI; PBMC/p24, day 7 (Table 8)
[3] = molecular target: T1, wild-type HIV-1 (WT) protease (Human immunodeficiency virus type 1 group M subtype B, UniProt P04585); experiment: continuous fluorogenic HIV protease assay; format: biochemical; conditions: WT (Table 7)
T1 construct: the proteases of wild-type HIV-1 (WT)
Protocol: (§1) This example describes the protocol for the sensitive continuous fluorogenic assay for HIV protease of the present invention and its application. […] The inhibition constant for wild-type HIV-1, Kimnt/Kiwt ratio, and vitality were measured.
(§2) The reaction was initiated by the addition of 5 μl of substrate stock solution in water. […] The initial rate of hydrolysis was calculated by second degree polynomial fit using SLM AB2 2.0 operating software.
(§3) For inhibition studies, inhibitors were prepared as stock solutions at different concentrations in dimethylsulfoxide. […] The reaction was initiated by the addition of 5 μl of substrate stock solution in water. For data analysis, the mathematical model for tight-binding inhibitors was used.

HIV-1 protease V82F/I84V [4] = experiment: continuous fluorogenic HIV protease assay; format: biochemical
Protocol: as §1, §2, §3

HIV-1 protease V82F/I84V [5] = molecular target: T2, HIV-1 protease V82F/I84V (Human immunodeficiency virus type 1 group M subtype B, UniProt P04585, I572V/V570F); experiment: continuous fluorogenic HIV protease assay; format: biochemical; conditions: V82F/I84V (Table 7)
T2 construct: the proteases of wild-type HIV-1 (WT) and various mutant enzymes
Protocol: as §1, §2, §3

HIV-1 protease G48V/V82A = molecular target: T3, HIV-1 protease G48V/V82A (Human immunodeficiency virus type 1 group M subtype B, UniProt P04585, G536V/V570A); experiment: continuous fluorogenic HIV protease assay; format: biochemical
T3 construct: proteases containing the deleterious drug resistance associated mutations V82F/I84V and G48V/V82A
Protocol: This example describes the protocol for the sensitive continuous fluorogenic assay for HIV protease of the present invention and its application. […] 21702-1201, upon written request. The inhibition constant for wild-type HIV-1, Kimnt/Kiwt ratio, and vitality were measured. (See Gulnik et al., Biochemistry, 34, 9282-9287 (1995). Protease activity was measured using the fluorgenic substrate Lys-Ala-Arg-Val-Tyr-Phe(NO2)-Glu-Ala-Nle-NH2 (Bachem Bioscience, Inc.). (See Peranteau et al., D.H. (1995) Anal. Biochem.).
The reaction was initiated by the addition of 5 μl of substrate stock solution in water. Increase in fluorescence intensity at the emission maximum of 306 nm (excitation wavelength was 277 nm) was monitored as a function of time using Aminco Bowman-2 luminescence spectrometer (SLM Instruments, Inc.). The initial rate of hydrolysis was calculated by second degree polynomial fit using SLM AB2 2.0 operating software.
as §3, with “used. (See Williams and Morrison (1979), In: Methods of Enzymol. 63, (ed. D. L. Purich), 437-467, Academic Press, NY, London). […]” for “used.”
This example describes the inhibitory activity of compounds 35 (FIG. 5A), 36 (FIG. 5B), 37 (FIG. 5C) and 38 (FIG. 5D). In accordance with the technique disclosed in Example 13 above, the inhibitory activity of these compounds was tested against proteases of the wild-type HIV-1. Compound 36, 37 and 38 were also tested against proteases containing the deleterious drug resistance associated mutations V82F/I84V and G48V/V82A. Fitness was determined in accordance with Example 13.

Cc1ccc(S(=O)(=O)N(CC(C)C)CC(O)C(Cc2ccccc2)NC(=O)OC2COC3OCCC23)cc1 (stereo not drawn)
IC50 (wild-type HIV): 3.5 nM
Ki (wild-type HIV protease): 1.2 nM

CC(C)CN(C[C@@H](O)[C@H](Cc1ccccc1)NC(=O)O[C@H]1CO[C@H]2OCC[C@H]21)S(=O)(=O)c1cccc(O)c1 [Compound 36]
IC50 (HIV-1LAI [1]): 17 nM
IC50 (HIV-1BAL): 38 nM
IC50 (HIV-1LAI [2]): 34 nM
Ki [3]: < 5 pM
KI-wt/KI-mut (HIV-1 protease V82F/I84V [4]; V82F/I84V (Table 7)): >4.9
Fitness (HIV-1 protease V82F/I84V [4]; V82F/I84V relative to WT (Table 7)): >0.8
Ki (HIV-1 protease V82F/I84V [5]): 0.0244 nM
KI-wt/KI-mut (HIV-1 protease G48V/V82A; G48V/V82A): >3.0
Ki (HIV-1 protease G48V/V82A; G48V/V82A): 0.0153 nM
Fitness (HIV-1 protease G48V/V82A; G48V/V82A relative to WT): >0.8
